Source: publication PMC9926475 (ACS chemical neuroscience, 2022)
Read-outs that look alike come from different tables or passages of the source.

Experiments:
[1] = Pharmacokinetic studies in plasma and brain of mice after i.p. injection; assay type: in vivo, mouse; conditions: for Cmax (mean ± SEM) Brain / B:P ratio (brain to plasma AUC ratio) / t1/2 Brain (terminal half-life) / t1/2 Plasma (terminal half-life) / Brain level at 4 h post-treatment: i.p. 5 mg/kg; for Cmax (mean ± SEM) Brain: normalized to free base dose; for Sex-dependent difference: Brain Total exposure (AUC) / Sex-dependent difference: Plasma Total exposure (AUC): standard t-test, F female, M male, NS not statistically different; for Brain level at 4 h post-treatment: LLOQ 5.0 ng/ml
male mice = test: Forced swim test immobility time 24 h after i.p. treatment; assay type: in vivo, mouse; conditions: for Minimal effective dose to reduce immobility time in the forced swim test: 24 h after injection; for Shape of dose response curve for forced swim test immobility: tested range up to 100 mg/kg
[2] = target: N-methyl-D-aspartate receptor (NMDAR); conditions: cited from earlier work
[3] = i.p. administration to mice, ref [19], cited from earlier work
mice = conditions: i.p., cited from earlier work
[4] = i.p.; ref [4]; cited from earlier work
rats = conditions: 10 mg/kg, i.p., ref [26]; cited from earlier work

## N[C@@]1(c2ccccc2Cl)C[C@H](O)CCC1=O [(2R,4R)-HNK]
[1]; female CD-1 mice
  Cmax (mean ± SEM) Brain: 490 ± 26.4 ng/g•mg/kg
[1]; female mice
  B:P ratio (brain to plasma AUC ratio): 1.2
  t1/2 Brain (terminal half-life): 29 min
  t1/2 Plasma (terminal half-life): 29 min
[1]; male CD-1 mice
  Cmax (mean ± SEM) Brain: 431 ± 43.5 ng/g•mg/kg
[1]; male mice
  B:P ratio (brain to plasma AUC ratio): 1.3
  t1/2 Brain (terminal half-life): 38 min
  t1/2 Plasma (terminal half-life): 35 min
[1]
  Sex-dependent difference: Brain Total exposure (AUC): M > F
  Sex-dependent difference: Plasma Total exposure (AUC): M > F

## N[C@@]1(c2ccccc2Cl)C[C@@H](O)CCC1=O [(2R,4S)-HNK]
[1]; female CD-1 mice
  Cmax (mean ± SEM) Brain: 495 ± 28.7 ng/g•mg/kg
[1]; female mice
  B:P ratio (brain to plasma AUC ratio): 1.0
  t1/2 Brain (terminal half-life): 15 min
  t1/2 Plasma (terminal half-life): 44 min
[1]; females, but not males
  Brain level at 4 h post-treatment: below LLOQs
[1]; male CD-1 mice
  Cmax (mean ± SEM) Brain: 758 ± 21.4 ng/g•mg/kg
[1]; male mice
  B:P ratio (brain to plasma AUC ratio): 1.1
  t1/2 Brain (terminal half-life): 32 min
  t1/2 Plasma (terminal half-life): 39 min
[1]
  Sex-dependent difference: Brain Total exposure (AUC): M > F
  Sex-dependent difference: Plasma Total exposure (AUC): M > F

## N[C@@]1(c2ccccc2Cl)CC[C@@H](O)CC1=O [(2R,5R)-HNK]
[1]; female CD-1 mice
  Cmax (mean ± SEM) Brain: 152 ± 8.8 ng/g•mg/kg
[1]; female mice
  B:P ratio (brain to plasma AUC ratio): 1.4
  t1/2 Brain (terminal half-life): 28 min
  t1/2 Plasma (terminal half-life): 31 min
[1]; male CD-1 mice
  Cmax (mean ± SEM) Brain: 142 ± 5.6 ng/g•mg/kg
[1]; male mice
  B:P ratio (brain to plasma AUC ratio): 1.2
  t1/2 Brain (terminal half-life): 27 min
  t1/2 Plasma (terminal half-life): 30 min
[1]
  Sex-dependent difference: Plasma Total exposure (AUC): M > F

## N[C@@]1(c2ccccc2Cl)CC[C@H](O)CC1=O [(2R,5S)-HNK]
[1]; female CD-1 mice
  Cmax (mean ± SEM) Brain: 154 ± 3.9 ng/g•mg/kg
[1]; female mice
  B:P ratio (brain to plasma AUC ratio): 1.0
  t1/2 Brain (terminal half-life): 27 min
  t1/2 Plasma (terminal half-life): 29 min
[1]; male CD-1 mice
  Cmax (mean ± SEM) Brain: 106 ± 6.8 ng/g•mg/kg
[1]; male mice
  B:P ratio (brain to plasma AUC ratio): 0.9
  t1/2 Brain (terminal half-life): 27 min
  t1/2 Plasma (terminal half-life): 28 min
[1]
  Sex-dependent difference: Brain Total exposure (AUC): F > M
  Sex-dependent difference: Plasma Total exposure (AUC): F > M

## N[C@@]1(c2ccccc2Cl)CCC[C@@H](O)C1=O [(2R,6R)-HNK, (2R,6R)-hydroxynorketamine]
[1]; female CD-1 mice
  Cmax (mean ± SEM) Brain: 530 ± 17.2 ng/g•mg/kg
[1]; female mice
  B:P ratio (brain to plasma AUC ratio): 1.3
  t1/2 Brain (terminal half-life): 34 min
  t1/2 Plasma (terminal half-life): 36 min
[1]; male CD-1 mice
  Cmax (mean ± SEM) Brain: 380 ± 19.3 ng/g•mg/kg
[1]; male mice
  B:P ratio (brain to plasma AUC ratio): 1.3
  t1/2 Brain (terminal half-life): 34 min
  t1/2 Plasma (terminal half-life): 38 min
[1]
  Sex-dependent difference: Brain Total exposure (AUC): F > M
  Sex-dependent difference: Plasma Total exposure (AUC): F > M
Male mice
  Minimal effective dose to reduce immobility time in the forced swim test: 10 mg/kg
  Shape of dose response curve for forced swim test immobility: did not demonstrate U-shaped dose responses
[2]; read-out: Ki, potency to bind or inhibit NMDARs, ref [4],[19],[31]-[35]
  Ki: > 100 µM
[3]; plasma collected at 2.5 and 5 min post-injection
  Time of peak plasma levels: 2.5 min
[3]
  Time of peak brain levels: 5 min
mice; ref [4]
  Lowest dose reducing forced swim test immobility time: 5 mg/kg
mice; mice, 10 mg/kg, ref [17]
  Effect on forced swim test immobility time: reduced forced swim test immobility time
[4]
  Lowest dose reducing escape failures in the learned helplessness test: 3 mg/kg
rats
  Reversal of learned helplessness: reversed learned helplessness

## N[C@@]1(c2ccccc2Cl)CCC[C@H](O)C1=O [(2R,6S)-HNK]
[1]; female CD-1 mice
  Cmax (mean ± SEM) Brain: 166 ± 12.3 ng/g•mg/kg
[1]; female mice
  B:P ratio (brain to plasma AUC ratio): 0.7
  t1/2 Brain (terminal half-life): 23 min
  t1/2 Plasma (terminal half-life): 47 min
[1]; females, but not males
  Brain level at 4 h post-treatment: below LLOQs
[1]; from Table 1
  Brain Cmax and AUC compared to equivalent dosing with (2R,6R)-HNK: approximately two-fold lower
[1]; male CD-1 mice
  Cmax (mean ± SEM) Brain: 173 ± 5.4 ng/g•mg/kg
[1]; male mice
  B:P ratio (brain to plasma AUC ratio): 0.6
  t1/2 Brain (terminal half-life): 43 min
  t1/2 Plasma (terminal half-life): 55 min
[1]
  Sex-dependent difference: Brain Total exposure (AUC): M > F
  Sex-dependent difference: Plasma Total exposure (AUC): M > F
Male mice
  Minimal effective dose to reduce immobility time in the forced swim test: 1 mg/kg
  Shape of dose response curve for forced swim test immobility: U-shaped dose response curves
[2]; read-out: NMDAR binding affinity, ref [31]
  Ki: > 100 µM

## N[C@]1(c2ccccc2Cl)C[C@H](O)CCC1=O [(2S,4R)-HNK]
[1]; both sexes
  Brain level at 4 h post-treatment: below LLOQs
[1]; female CD-1 mice
  Cmax (mean ± SEM) Brain: 190± 13.7 ng/g•mg/kg
[1]; female mice
  B:P ratio (brain to plasma AUC ratio): 1.0
  t1/2 Brain (terminal half-life): 21 min
  t1/2 Plasma (terminal half-life): 47 min
[1]; male CD-1 mice
  Cmax (mean ± SEM) Brain: 160 ± 10.2 ng/g•mg/kg
[1]; male mice
  B:P ratio (brain to plasma AUC ratio): 0.9
  t1/2 Brain (terminal half-life): 23 min
  t1/2 Plasma (terminal half-life): 48 min
